Holding throughout (type): biochemical
The target in test [1] is thrombin (Homo sapiens, UniProt P00734). Kind of test: Kinetic parameters of hydrolysis of the substrates by thrombin in buffer A at 37° C. (Example 4, Table 3). Set-up: Pure human α-thrombin; gift of Dr. T. Lindhout (University of Limburg, Maastricht); key to Thrombin kcat: NH: no hydrolysis. The settings on record: for Km / Thrombin kcat / Thrombin kcat /Km: buffer A, 37° C. The method, then: (§1) Kinetic parameters: The hydrolysis experiments were run in buffer A at 37° C. The liberation of p-nitroaniline was monitored at 405 nm in a dual wavelength (405-546 nm) spectrophotometer made in our workshop, using a personal computer for data recording. In a polystyrene microcuvette (total volume 500 μL), buffer A and substrate solution were added to obtain a final substrate concentration between 200 to 2000 μM. After 5 min of incubation at 37° C., enzyme solution was added to achieve a final concentration between 0.5 to 50 nM. The measurement was carried out at 37° C. in a thermostated cuvette-holder. The Michaelis constant (Km) and the catalytic constant (kcat) were obtained by measuring the initial reaction velocities at different substrate concentrations. The data obtained were fitted by linear regression on the Michaelis-Menten equation.
(§2) Kinetic parameters: The Km and kcat values for each substrate were determined at an enzyme concentration of 0.5-50 nM (thrombin) and 50 nM factor Xa. From the initial reaction velocities, measured for at least six substrate concentrations between 200 and 2000 μM, the Km and kcat values were calculated by linear regression on the Michaelis-Menten curve. Table 3 gives an overview of the kinetic parameters of the different substrates hydrolyzed by thrombin and by factor Xa in buffer A.

Test [2] addresses T1, factor Xa (Homo sapiens, UniProt P00742).
T1 construct: human factor Xa samples; gift of Dr. T. Lindhout (University of Limburg, Maastricht)
Kind of test: Kinetic parameters of hydrolysis of the substrates by factor Xa in buffer A at 37° C. (Example 4, Table 3). Set-up: key to Factor Xa kcat: NH: no hydrolysis. The conditions noted are these: for Factor Xa kcat / Factor Xa kcat /Km / Km: buffer A, 37° C., 50 nM factor Xa. The method, then:
as §1, §2

In test [3] the target is T2, human α-thrombin (Homo sapiens, UniProt P00734).
T2 construct: Pure human α-thrombin; gift of Dr. T. Lindhout (University of Limburg, Maastricht)
Briefly: Kinetics of hydrolysis of substrates by human α-thrombin in buffer A at 37° C. (Example 2, Table 1). On the procedure:
as §1, with “between 1” for “between 200”, “to 100” for “to 50”, “measuring” for “measuring the”
Kinetic parameters: In a preliminary experiment, the substrate was hydrolyzed under the following conditions: enzyme concentration: 10 to 20 nM, substrate concentration: 200 μM in buffer A to get an impression of the initial velocity. […] The results are given in table 1 and 2 for thrombin and factor Xa respectively. The Km and kcat for each substrate were determined from the initial velocities measured for at least six substrate concentrations in the concentration range as given. The enzyme concentration used gives a good signal to noise ratio. The data given are obtained from one or two experiments. The data from table 1 and 2 were only used as the first selection criterion to get a rough impression of the hydrolysis behaviour. Notwithstanding the preliminary character of the measurement it was helpful in the design of the substrates of our interest.

From patent US6207399A, “Methods of determining endogenous thrombin potential (ETP) and thrombin substrates for use in said methods” (Hemker; Hendrik Coenraad, priority 1995, dated 2001) come the findings set out here.

In general, Km refers to the concentration of substrate that gives half-maximal velocity. As a reminder, the kcat is the maximal rate divided by the concentration of active sites.

Structures are written as SMILES. Square brackets hold non-standard residues; d marks the D form. Peptide text beside a SMILES is read from it. * marks the point of attachment. pNA = O=[N+]([O-])c1ccc(N*)cc1; Nle = CCCC[C@H](N)C(=O)O; Orn = NCCC[C@H](N)C(=O)O

T1 sequence (P00742 41-179 limits assumed): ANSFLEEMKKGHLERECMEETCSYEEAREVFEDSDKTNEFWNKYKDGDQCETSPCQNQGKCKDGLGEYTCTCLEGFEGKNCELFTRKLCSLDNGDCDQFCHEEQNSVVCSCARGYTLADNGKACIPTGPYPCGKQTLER
T1 sequence (P00742 235-488 limits assumed): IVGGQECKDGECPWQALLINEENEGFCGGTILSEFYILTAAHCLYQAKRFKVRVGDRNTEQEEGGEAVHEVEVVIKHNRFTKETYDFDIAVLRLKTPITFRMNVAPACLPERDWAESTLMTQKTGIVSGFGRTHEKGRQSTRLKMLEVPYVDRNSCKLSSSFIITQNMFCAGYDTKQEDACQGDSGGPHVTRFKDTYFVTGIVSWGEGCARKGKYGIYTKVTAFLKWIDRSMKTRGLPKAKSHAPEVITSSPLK

For `CC(C)[C@H](NC(=O)CN)C(=O)N[C@@H](CCCCN)C(=O)Nc1ccc([N+](=O)[O-])cc1.Cl.Cl` [2HCl.H-Gly-Val-Lys pNA, 2HCl.H-Gly-Val-Lys-pNA] (H-Gly-Val-Lys-pNA), in test [1], the “hydrolysis by thrombin (text on Table 3)” value was “hydrolysed by thrombin”, the Km stood at 986 µM, the Thrombin kcat is 0.20 s⁻¹ and the “Thrombin kcat /Km” value turned out to be 198 M/s. In test [2], the “hydrolysis by Factor Xa (text on Table 3)” value (“hydrolysis by Factor Xa” for short) is recorded as “not by Factor Xa” and the “Factor Xa kcat” value was “NH”.
For `CC(C)[C@H](NC(=O)[C@@H](N)CCC(=O)O)C(=O)N[C@@H](CCCNC(=N)N)C(=O)Nc1ccc([N+](=O)[O-])cc1.Cl.Cl` [2HCl.H-Glu-Val-Arg-pNA] (H-Glu-Val-Arg-pNA), in test [1], the Km came out at 932 µM, the Thrombin kcat is 1.44 s⁻¹ and the “Thrombin kcat /Km” value was 1540 M/s. Also, in test [2], the “Factor Xa kcat” value turned out to be 1.07 s⁻¹, the “Factor Xa kcat /Km” value stood at 709 M/s and the Km was determined as 1510 µM.
Regarding `CCCC[C@H](NC(=O)[C@@H](NC(=O)CN)C(C)C)C(=O)Nc1ccc([N+](=O)[O-])cc1.Cl` [HCl.H-Gly-Val-Nle-pNA] (H-Gly-Val-[Nle]-pNA), in test [1], the “hydrolysis by thrombin (text on Table 3)” value was “hydrolysed by neither thrombin nor Factor Xa” and the Thrombin kcat entry is given as “NH”. Besides, in test [2], the “hydrolysis by Factor Xa” value is recorded as “hydrolysed by neither thrombin nor Factor Xa” and the “Factor Xa kcat” value was “NH”.
With `CC(C)[C@H](NC(=O)CNC(=O)[C@@H](N)CCC(=O)O)C(=O)N[C@@H](CCCNC(=N)N)C(=O)Nc1ccc([N+](=O)[O-])cc1` [2HCl.H-Glu-Gly-Val-Arg-pNA] (H-EGVR-pNA), in test [1], the Km is 3270 µM, the Thrombin kcat is 3.51 s⁻¹ and the “Thrombin kcat /Km” value was determined as 1070 M/s. For the same compound, in test [2], the “Factor Xa kcat” value came to 0.93 s⁻¹, the “Factor Xa kcat /Km” value stood at 638 M/s and the Km was determined as 1430 µM.
For `CCCC[C@H](NC(=O)[C@@H](NC(=O)OCCS(C)(=O)=O)C(C)C)C(=O)Nc1ccc([N+](=O)[O-])cc1` [Msc-Val-Nle-pNA], the Thrombin kcat result in test [1] is “NH”. Besides, the “Factor Xa kcat” value in test [2] is reported as “NH”.
Turning to `CC(C)C(N)C(=O)NC(CCCCN)C(=O)Nc1ccc([N+](=O)[O-])cc1.Cl.Cl` (stereo not drawn) [2HCl.H-Val-Lys-pNA], in test [1], the Thrombin kcat entry is “NH”. In addition, the “Factor Xa kcat” value in test [2] is “NH”.
For `CC(C)[C@H](NC(=O)CN)C(=O)N[C@@H](CCCN)C(=O)Nc1ccc([N+](=O)[O-])cc1.Cl.Cl` [2HCl.H-Gly-Val-Orn-pNA] (H-Gly-Val-[Orn]-pNA), in test [1], the “hydrolysis by thrombin (text on Table 3)” value is given as “hydrolysed by neither thrombin nor Factor Xa” and the Thrombin kcat result is “NH”. Further, in test [2], the “hydrolysis by Factor Xa” value is “hydrolysed by neither thrombin nor Factor Xa” and the “Factor Xa kcat” value is recorded as “NH”.
Regarding `CC(C)[C@H](NC(=O)CNC(=O)CNC(=O)CNC(=O)[C@@H](N)CCC(=O)O)C(=O)N[C@@H](CCCNC(=N)N)C(=O)Nc1ccc([N+](=O)[O-])cc1` [2HCl.H-EGGGVR-pNA, 2HCl.H-Glu-Gly-Gly-Gly-Val-Arg-pNA] (H-EGGGVR-pNA), in test [1], the Michaelis-Menten constant (Km) came to 379 µM, the Thrombin kcat was 0.27 s⁻¹ and the “Thrombin kcat /Km” value came out at 704 M/s. In test [2], the “Factor Xa kcat” value amounted to 0.30 s⁻¹, the “Factor Xa kcat /Km” value is 201 M/s and the Michaelis-Menten constant (Km) is 1490 µM.
With `CC(C)[C@H](NC(=O)OCCS(C)(=O)=O)C(=O)N[C@@H](CCCCN)C(=O)Nc1ccc([N+](=O)[O-])cc1.Cl` [Msc-Val-Lys-pNA.HCl], in test [1], the Thrombin kcat entry is recorded as “NH”. In addition, the “Factor Xa kcat” value in test [2] was “NH”.
Turning to `CC(C)[C@H](NC(=O)CNC(=O)[C@@H]1CCCN1C(=O)CNC(=O)[C@@H](N)CCC(=O)O)C(=O)N[C@@H](CCCNC(=N)N)C(=O)Nc1ccc([N+](=O)[O-])cc1` [2HCl.H-EGPGVR-pNA, 2HCl.H-Glu-Gly-Pro-Gly-Val-Arg-pNA] (H-EGPGVR-pNA), in test [1], the Km was 1070 µM, the Thrombin kcat stood at 9.07 s⁻¹ and the “Thrombin kcat /Km” value was 8440 M/s. For the same compound, in test [2], the “Factor Xa kcat” value is 3.41 s⁻¹, the “Factor Xa kcat /Km” value was 1560 M/s and the Km stood at 2190 µM.
As to `CC(C)[C@H](NC(=O)OCCS(C)(=O)=O)C(=O)N[C@@H](CCCN)C(=O)Nc1ccc([N+](=O)[O-])cc1.Cl` [Msc-Val-Orn-pNA.HCl], the Thrombin kcat entry in test [1] is “NH”. Also, the “Factor Xa kcat” value in test [2] is reported as “NH”.
Consider `Cl.Cl.NCCCC[C@H](NC(=O)[C@@H]1CCCN1C(=O)[C@H](N)Cc1ccccc1)C(=O)Nc1ccc([N+](=O)[O-])cc1` [2HCl.H-D-Phe-Pro-Lys-pNA] (H-[dF]-Pro-Lys-pNA), for which, in test [3], the Km turned out to be 35 µM, the kcat turned out to be 90.4 s⁻¹ and the “kcat /Km” value is 2.58e+06 M/s. In test [1], the Km was 35 µM, the Thrombin kcat was 90 s⁻¹ and the “Thrombin kcat /Km” value came to 2.58e+06 M/s. In addition, in test [2], the “Factor Xa kcat” value is reported as “NH”.
Consider `CC(C)[C@H](NC(=O)CNC(=O)CNC(=O)[C@@H]1CCCN1C(=O)[C@@H](N)CCC(=O)O)C(=O)N[C@@H](CCCNC(=N)N)C(=O)Nc1ccc([N+](=O)[O-])cc1` [2HCl.H-EPGGVR-pNA, 2HCl.H-Glu-Pro-Gly-Gly-Val-Arg-pNA] (H-EPGGVR-pNA), for which, in test [1], the Thrombin kcat entry is recorded as “NH”. For the same compound, in test [2], the “Factor Xa kcat” value was 0.45 s⁻¹, the “Factor Xa kcat /Km” value was found to be 468 M/s and the Km was found to be 961 µM.
